The values that follow come from the NIST ThermoML archive (doi:10.1016/j.fluid.2010.05.010).

The data set in a line: activity coefficient (dimensionless); of the first substance listed, at infinite dilution; xn = mol fraction of the nth substance listed. Particulars: 101 kPa, Liquid, x1 = 0.

± gives the expanded uncertainty stated by the source.

Turning to `COC(=O)OC` [dimethyl carbonate] + O, the activity coefficient turned out to be 37.6 ± 0.2 (273.35 K, Inert gas stripping); 43.8 ± 0.1 (283.15 K, Inert gas stripping); 46.3 ± 0.1 (293.15 K, Inert gas stripping); 48 ± 0.1 (298.15 K, Inert gas stripping); 49.3 ± 0.1 (303.15 K, Inert gas stripping); 50 ± 0.1 (313.15 K, Inert gas stripping). The activity coefficient came to 50.9 ± 0.1 (323.15 K, Inert gas stripping) and 50.3 ± 0.1 (333.15 K, Inert gas stripping).

Consider `C=COC(C)=O` [vinyl acetate] + O, for which the activity coefficient came out at 150 ± 1 (273.35 K, Inert gas stripping); 161 ± 1 (283.15 K, Inert gas stripping); 177 ± 1 (293.15 K, Inert gas stripping); 181 ± 1 (298.15 K, Inert gas stripping); 187 ± 1 (303.15 K, Inert gas stripping); 190 ± 1 (313.15 K, Inert gas stripping). Besides, the activity coefficient reads like this: (323.15 K, Inert gas stripping) 194 ± 1; (333.15 K, Inert gas stripping) 187 ± 1.

For the compound `C=C(C)C(=O)OC` [methyl methacrylate] + O, the activity coefficient (273.35 K, Inert gas stripping) is 283 ± 1; the activity coefficient (283.15 K, Inert gas stripping) was 321 ± 1; the activity coefficient (293.15 K, Headspace solid-phase microextraction) amounted to 380 ± 1; the activity coefficient (293.15 K, Inert gas stripping) was 366 ± 1; the activity coefficient (298.15 K, Headspace solid-phase microextraction) worked out at 389 ± 1; the activity coefficient (298.15 K, Inert gas stripping) was 380 ± 1. For the same compound, the activity coefficient came out at 382 ± 1 (303.15 K, Headspace solid-phase microextraction); 390 ± 1 (303.15 K, Inert gas stripping); 403 ± 1 (313.15 K, Inert gas stripping); 403 ± 1 (323.15 K, Inert gas stripping); 394 ± 1 (333.15 K, Inert gas stripping).

For `CCOC(=O)OCC` [diethyl carbonate] + O, the activity coefficient amounted to 246 ± 1 (273.35 K, Inert gas stripping); 299 ± 1 (283.15 K, Inert gas stripping); 353 ± 1 (293.15 K, Inert gas stripping); 374 ± 1 (298.15 K, Inert gas stripping); 394 ± 1 (303.15 K, Inert gas stripping); 408 ± 1 (313.15 K, Inert gas stripping). Besides, the activity coefficient was found to be 394 ± 1 (323.15 K, Inert gas stripping) and 388 ± 1 (333.15 K, Inert gas stripping).
